In US8674096B2, “Substituted imidazo[1,5-a]quinoxalin-4-ones as phosphodiesterase 9 inhibitors” (priority 2009, dated 2014):

SMILES	melting point
O=C(c1ccc2c(c1)[nH]c(=O)c1nnc(C3CCOCC3)n12)N1Cc2ccccc2C1	303 °C (dec.)
Cc1cc2c(cc1C(=O)N1CCc3cccnc31)[nH]c(=O)c1cnc(C3CCOCC3)n12	341 °C (dec.)
Cc1cc2c(cc1C(=O)N1Cc3cccc(C#N)c3C1)[nH]c(=O)c1cnc(C3CCOCC3)n12.Cl	328 °C (dec.)
COc1cccc2c1CN(C(=O)c1cc3[nH]c(=O)c4cnc(C5CCOCC5)n4c3cc1C)C2.Cl	209 °C (dec.)
COc1cc2c(cn1)N(C(=O)c1cc3[nH]c(=O)c4cnc(C5CCOCC5)n4c3cc1C)CC2	232 to 233 °C
Cc1cc2c(cc1C(=O)N1CCc3c(Cl)cccc31)[nH]c(=O)c1cnc(C3CCOCC3)n12.Cl	272 to 273 °C
Cc1cc2c(cc1C(=O)N1CCc3cc(F)c(Cl)cc31)[nH]c(=O)c1cnc(C3CCOCC3)n12.Cl	315 °C (dec.)
Cc1cc2c(cc1C(=O)N1Cc3ccc(Cl)cc3C1)[nH]c(=O)c1cnc(C3CCCOC3)n12.Cl (stereo not drawn)	200 to 203 °C
Cc1ccc2c(c1)CCN2C(=O)c1cc2[nH]c(=O)c3cnc(C4CCOC4)n3c2cc1C.Cl (stereo not drawn)	186 to 188 °C (dec.)
Cc1cc2c(cc1C(=O)N1Cc3cccc(C)c3C1)[nH]c(=O)c1cnc(C3CCOC3)n12.Cl (stereo not drawn)	270 to 272 °C (dec.)
Cc1cnc2c(c1)CCN2C(=O)c1cc2[nH]c(=O)c3cnc(C4CCOCC4)n3c2cc1C	313 to 315 °C
Cc1cc2c(cc1C(=O)N1Cc3cccc(C)c3C1)[nH]c(=O)c1nnc(C3CCOC3)n12.Cl (stereo not drawn)	311 °C (dec.)
Cc1cc2c(cc1C(=O)N1CCc3onc(-c4ccc(F)cc4)c3C1)[nH]c(=O)c1nnc(C3CCOC3)n12 (stereo not drawn)	282 to 284 °C (dec.)
COc1cc2c(cn1)N(C(=O)c1cc3[nH]c(=O)c4nnc(C5CCCC5)n4c3cc1C)CC2	263 to 265 °C
Cl.O=C(c1cc2[nH]c(=O)c3cnc(C4CCOCC4)n3c2cc1C1CC1)N1Cc2ccccc2C1	185 to 189 °C (dec.)
Cl.O=C(c1cc2[nH]c(=O)c3cnc(C4CCOCC4)n3c2cc1C1CC1)N1Cc2ccc(Cl)cc2C1	199 to 203 °C (dec.)
Cl.O=C(c1cc2[nH]c(=O)c3cnc(C4CCOCC4)n3c2cc1Cl)N1Cc2ccccc2C1	332 °C (dec.)
Cc1cc2c(cc1C(=O)N1CCc3cc(F)ccc31)[nH]c(=O)c1nnc(C3CCCOC3)n12.Cl (stereo not drawn)	235 to 237 °C

SMILES	melting point
Cc1cc2c(cc1C(=O)N1Cc3ccccc3C1)[nH]c(=O)c1nnc(C3CCOC3)n12.Cl (stereo not drawn)	223 to 224 °C
Cc1cc2c(cc1C(=O)N1CCc3ncccc3C1)[nH]c(=O)c1cnc(C3CCOCC3)n12	236 to 239 °C
Cc1cc2c(cc1C(=O)N1Cc3ccccc3C1)[nH]c(=O)c1nnc(C3CCCOC3)n12.Cl (stereo not drawn)	303 °C (dec.)
Cc1c(C(=O)N2Cc3ccccc3C2)ccc2c1[nH]c(=O)c1cnc(C3CCOCC3)n12.Cl	183 to 186 °C
Cc1cc2c(cc1C(=O)N1CCc3cc(C4CC4)cnc31)[nH]c(=O)c1nnc(C3CCOCC3)n12	210 to 212 °C
Cc1cc2c(cc1C(=O)N1CCc3cc(Cl)ccc31)[nH]c(=O)c1nnc(C3CCC3)n12.Cl	225 to 228 °C
COc1cc2c(cc1C(=O)N1CCc3cc(C)cnc31)[nH]c(=O)c1cnc(C3CCOCC3)n12	288 °C (dec.)
Cc1cc2c(cc1C(=O)N1CCc3cc(Cl)ccc31)[nH]c(=O)c1cnc([C@H]3CC[C@H](O)CC3)n12.Cl	207 to 209 °C
Cc1cc2c(cc1C(=O)N1CCc3cc(Br)cnc31)[nH]c(=O)c1cnc([C@H]3CC[C@@H](O)CC3)n12.Cl	305 to 307 °C
Cc1cc2c(cc1C(=O)N1CCc3cc(Cl)ccc31)[nH]c(=O)c1nnc(CC3CC3)n12	303 to 305 °C
CC(C)c1ncc2c(=O)[nH]c3cc(C(=O)N4CCOC(c5ccccc5)C4)ccc3n12.Cl (stereo not drawn)	268 to 271 °C
CC(C)c1ncc2c(=O)[nH]c3cc(C(=O)N4CCc5c(Cl)cccc5C4)ccc3n12.Cl	328 to 329 °C
COc1cc2c(cc1C(=O)N1CCOC(c3ccccc3)C1)[nH]c(=O)c1cnc(C3CCCCC3)n12.Cl (stereo not drawn)	182 to 186 °C
Cc1cc2c(cc1C(=O)N1CCc3ccc([N+](=O)[O-])cc31)[nH]c(=O)c1cnc(C3CCOCC3)n12.Cl	301 to 304 °C
Cc1cc2c(cc1C(=O)N1Cc3ccccc3C1)[nH]c(=O)c1nnc(CC3CC[S+]([O-])CC3)n12 (stereo not drawn)	248 °C (dec.)
Cc1cc2c(cc1C(=O)N1Cc3ccccc3C1)[nH]c(=O)c1nnc(C3CCCC3)n12	318 °C (dec.)
Cc1cc2c(cc1C(=O)N1CCOC(c3ccccc3)C1)[nH]c(=O)c1cnc(C3CCCC3)n12 (stereo not drawn)	304 to 305 °C
Cc1cc2c(cc1C(=O)N1CCc3cc(Cl)ccc31)[nH]c(=O)c1cnc([C@@H]3CCC[C@@H]3O)n12 (racemic) [Example 343]	238 to 240 °C

The next lines start with the values.

melting point	SMILES
216 to 219 °C	Cc1cc2c(cc1C(=O)N1CCc3ccccc31)[nH]c(=O)c1cnc(C3CCOCC3)n12.Cl
203 to 205 °C	Cc1ccc2c(c1)CN(C(=O)c1cc3[nH]c(=O)c4cnc(C5CCOCC5)n4c3cc1C)C2
198 to 202 °C	CCCc1nnc2c(=O)[nH]c3cc(C(=O)N4CCc5c(Cl)cccc5C4)c(C)cc3n12
199 to 201 °C (dec.)	Cc1cc2c(cc1C(=O)N1Cc3c(F)ccc(F)c3C1)[nH]c(=O)c1cnc(C3CCOCC3)n12.Cl
286 °C (dec.)	Cc1cc2c(cc1C(=O)N1Cc3cccc(C4CC4)c3C1)[nH]c(=O)c1cnc(C3CCOCC3)n12.Cl
313 °C (dec.)	Cc1cc2c(cc1C(=O)N1Cc3cccc(I)c3C1)[nH]c(=O)c1cnc(C3CCOCC3)n12.Cl
188 to 189 °C	Cc1cc2c(cc1C(=O)N1CCc3ccc(Cl)cc31)[nH]c(=O)c1cnc(C3CCOCC3)n12.Cl
185 to 187 °C	Cc1cc2c(cc1C(=O)N1Cc3ccc(Cl)cc3C1)[nH]c(=O)c1cnc(C3CCOC3)n12.Cl (stereo not drawn)
328 to 330 °C (dec.)	COc1cc2c(cc1C(=O)N1CCc3cc(Cl)ccc31)[nH]c(=O)c1cnc(C3CCOCC3)n12.Cl
232 °C (dec.)	Cc1cc2c(cc1C(=O)N1Cc3ccccc3C1)[nH]c(=O)c1nnc(C3(C)CCOCC3)n12
352 °C (dec.)	Cl.O=C(c1cc2[nH]c(=O)c3cnc(C4CCOCC4)n3c2cc1Cl)N1CCc2cc(Cl)ccc21
189 to 192 °C	Cc1cc2c(cc1C(=O)N1CCN(C)C(c3ccccc3)C1)[nH]c(=O)c1cnc(C3CCOCC3)n12 (stereo not drawn)
210 to 213 °C (dec.)	COc1cc2c(cc1C(=O)N1Cc3ccc(Cl)cc3C1)[nH]c(=O)c1cnc(C3CCOCC3)n12.Cl
230 to 233 °C	Cc1cc2c(cc1C(=O)N1CCc3cc(Cl)ccc31)[nH]c(=O)c1nnc(C3CCC(F)(F)CC3)n12
241 °C (dec.)	COc1cc2c(cn1)N(C(=O)c1cc3[nH]c(=O)c4cnc(C5CCOCC5)n4c3cc1C1CC1)CC2
201 to 203 °C	Cc1cc2c(cc1C(=O)N1Cc3cccc(F)c3C1)[nH]c(=O)c1cnc(C3CCOCC3)n12.Cl
350 °C (dec.)	O=C(c1cc2[nH]c(=O)c3nnc(C4CCOCC4)n3c2cc1Br)N1Cc2ccccc2C1
177 to 180 °C	Cc1cc2c(cc1C(=O)N1CCc3cc(F)ccc31)[nH]c(=O)c1c(C)nc(C3CCOCC3)n12

melting point	SMILES
192 °C (dec.)	Cc1cc2c(cc1C(=O)N1CCc3cccnc31)[nH]c(=O)c1c(C)nc(C3CCOCC3)n12
301 to 304 °C (dec.)	COCc1cc2c(cc1C(=O)N1CCc3cc(F)ccc31)[nH]c(=O)c1cnc(C3CCOCC3)n12.Cl
261 to 264 °C (dec.)	COCc1cc2c(cc1C(=O)N1Cc3ccccc3C1)[nH]c(=O)c1cnc(C3CCOCC3)n12.Cl
204 to 206 °C	Cc1cc2c(cc1C(=O)N1CCc3cc(C4CC4)cnc31)[nH]c(=O)c1nnc(C3CCCOC3)n12 (stereo not drawn)
223 to 226 °C	Cc1cc2c(cc1C(=O)N1CCc3cc(F)ccc31)[nH]c(=O)c1nnc(C3CCC3)n12.Cl
229 to 232 °C	Cc1cc2c(cc1C(=O)N1CCc3cc(Cl)ccc31)[nH]c(=O)c1nnc(C3(C)CCOCC3)n12.Cl
277 °C (dec.)	COCc1cc2c(cc1C(=O)N1Cc3cccc(F)c3C1)[nH]c(=O)c1cnc(C3CCOCC3)n12.Cl
199 to 201 °C	Cc1cc2c(cc1C(=O)N1CCc3cc(F)ccc31)[nH]c(=O)c1cnc([C@H]3CC[C@H](O)CC3)n12.Cl
320 °C (dec.)	Cc1c(C(=O)N2CCc3cccnc32)ccc2c1[nH]c(=O)c1cnc(C3CCOCC3)n12.Cl
221 to 223 °C	Cc1cc2c(cc1C(=O)N1CCc3cc(F)ccc31)[nH]c(=O)c1nnc(C3CCOCC3)n12.Cl
253 °C (dec.)	Cc1cc2c(cc1C(=O)N1Cc3ccccc3C1)[nH]c(=O)c1nnc(CC3CCS(=O)(=O)CC3)n12.Cl
270 °C (dec.)	Cc1cc2c(cc1C(=O)N1Cc3ccccc3C1)[nH]c(=O)c1cnc(C3CCOC3)n12.Cl (stereo not drawn)
269 °C (dec.)	Cc1cc2c(cc1C(=O)N1CCc3c(Cl)cccc3C1)[nH]c(=O)c1nnc(C3CCOCC3)n12
329 °C (dec.)	Cc1cc2c(cc1C(=O)N1Cc3cccc(Cl)c3C1)[nH]c(=O)c1nnc(C3CCOCC3)n12
246 to 248 °C	Cc1cc2c(cc1C(=O)N1CCN(C)C(c3ccccc3)C1)[nH]c(=O)c1cnc(C3CCCC3)n12 (stereo not drawn)
304 °C (dec.)	Cc1cc2c(cc1C(=O)N1Cc3ccccc3C1)[nH]c(=O)c1cnc(C3CCCC3)n12
316 °C (dec.)	Cc1cc2c(cc1C(=O)N1Cc3ccccc3C1)[nH]c(=O)c1nnc([C@@H]3CCC[C@@H]3O)n12 (racemic)
301 to 302 °C (dec.)	Cc1cc2c(cc1C(=O)N1Cc3ccccc3C1)[nH]c(=O)c1cnc([C@@H]3CCC[C@@H]3O)n12 (racemic)
